Article PMC10721329, “Quisinostat is a brain-penetrant radiosensitizer in glioblastoma” (JCI Insight, 2023)
Several values for one entry are separate records, joined by “and”; a condition that tells them apart may be missing. Identical values can stand only once.

What was measured:
[1] = system: orthotopic GB126 tumors; experiment: Survival study, orthotopic GB126 PDX, QST with or without IR; assay type: in vivo, athymic nude mice; details: for Survival, Days Post Injection (death): GB126 PDX, individual mice; for increase of median survival versus vehicle: orthotopic GB126 PDX
Protocol: We additionally questioned whether QST, either alone or in combination with IR, could extend the survival of tumor-bearing mice. In this study, mice received the same treatments described above, but after completion of the 1-week IR regimen, mice continued to receive QST at 10 mg/kg or vehicle solution on MWF until study completion, as determined by large tumor burden and onset of neurological symptoms (Figure 8A). […] Although QST monotherapy slowed tumor growth, median survival for the QST-treated mice was only 4 days longer than for the vehicle-treated mice (P < 0.01), and IR alone increased median survival by 17 days (P < 0.001; Figure 8D). However, combining QST with IR led to a significant increase in median survival (37 days, P < 0.001) compared with the vehicle (Figure 8D).
Seven-week-old Foxn1^nu nude male mice (The Jackson Laboratory) were used for in vivo orthotopic transplantation of luciferized GB126 ([…]) cells (at a density of 50,000 cells/μL). All procedures were performed as described elsewhere ([11]). All mice were observed daily and were sacrificed upon the onset of severe neurological symptoms and more than 10% body weight loss. Survival data were plotted and analyzed using GraphPad Prism 8. See Supplemental Methods for detailed in vivo methods. […]
treated with 2 Gy of ionizing radiation on MWF for a total 6 Gy (3 doses). Ionizing radiation was administered with the RS2000 series biological research irradiator (Rad Source Technologies). […]
Treatment of Mice with Intracranially Implanted QST and/or Radiation
Mice with implanted tumors were allowed to grow until the tumor bioluminescence score reached […] radiance (p/s/[…]/sr). Mice were randomized into groups before treatment. For survival studies, mice underwent treatment on MWF for the entire duration of the experiment until moribund. For mice receiving IR treatment with or without QST, mice were treated with 2 […]
Gy on MWF for a total of 6 Gy in the first week of treatment. Treatment groups included vehicle (50% PEG-3000), QST (10 mg/kg) alone, 6 Gy whole-brain IR treatment with vehicle, and 6 Gy whole-brain IR treatment with 10 mg/kg QST. QST was administered to mice through intraperitoneal injections two hours prior to whole-brain radiation treatment. Upon completion of the radiation regimen, IR-treated mice subsequently received QST or vehicle alone for the rest of the experiment. Tumor growth and treatment response was monitored by IVIS bioluminescence once per week. For survival studies, mice were sacrificed, and samples were collected for PD and PK analyses once moribund 2 hours after treatment with a final dose of QST (10 mg/kg).
For short-term PK-PD correlation studies, tumor-bearing mice were randomized into groups and underwent a single week of treatment with QST (10 mg/kg) on MWF. […]

[2] = system: GB126 cells; experiment: Ki67 / cleaved caspase-3 immunofluorescence; assay type: cell-based, human; details: QST at IC50, 72 hours, replicates
Protocol: (§1) Cells were grown as adherent cultures on laminin -coated glass coverslips (Thermo Fisher Scientific) in GSC media. Twenty-four hours after plating, the cells were treated with QST or DMSO diluted in GSC media. Seventy-two hours after treatment, cells were fixed with 4% paraformaldehyde for 13 minutes at room temperature. Cells were washed with phosphate-buffered saline (PBS) and subsequently permeabilized and blocked with 5% normal goat serum (Sigma Aldrich) and 0.2% Triton X -100 in PBS (blocking solution) for 30 minutes at room temperature. The cells were incubated with primary antibodies overnight a t 4 °C in blocking solution. Primary antibodies used in this study included rabbit anti -Ki67 (1:1000; Abcam, 15580), rabbit anti-Cleaved Caspase 3 (1:400; Cell Signaling Technologies, 9661), rabbit anti - gamma H2AX (phospho Ser139; 1:1000, Abcam, ab11174), and mouse anti-human Nestin (1:500; Novus Biologicals, 10C2). The following day, the cells were washed with PBS 3 times, incubated with fluorophore-conjugated secondary antibodies at 1: 1000 dilutions (Alexa Fluor […]
(§2) for 1 hour at room temperature, and washed in PBS 3 more times. Cells were mounted onto […]
(§3) SuperFrost Plus microscope slides using Fluoroshield Mounting Medium containing DAPI (Abcam). Images were acquired using a confocal microscope (Leica Microsystems; TCS SP5) operated with Leica Application Suite software. The fraction of Ki67- and Cleaved Caspase 3– positive cells were counted from 5 independent images from each condition. The mean and standard deviation were calculated from 3 biological replicates for all control and QST-treated […]
(§4) Analysis of immunostaining of cultured GSCs was performed on confocal stacks (with a step size of 0.5–1.5 μm) acquired with either a 20× water-immersion objective or a 63× oil-immersion objective on a laser-scanning confocal microscope (Leica Microsystems; TCS SP5) operated with Leica Application Suite software. All images were processed using ImageJ software (National Institutes of Health). […]
(§5) mL of ice cold 70% ethanol, added dropwise while vortexing. Cells were fixed on ice for 30 minutes and washed twice with 1× PBS. Cells were then resuspended in 500 μL of propidium iodide/RNAse staining buffer (BD Biosciences, 550825) for 15 minutes at room temperature before analysis. Data from all the samples were obtained using a Fortessa flow cytometer (BD […]

[3] = system: BT145 cells; experiment: Ki67 / cleaved caspase-3 immunofluorescence; assay type: cell-based, human; details: QST at IC50, 72 hours, replicates
Protocol: as §1, §2, §3, §4, §5

For Cn1cc(CNCC2CCN(c3ncc(C(=O)NO)cn3)CC2)c2ccccc21 [QST, quisinostat], which “Survival, Days Post Injection (death)” value ([1]; QST 10 mg/kg + IR 6 Gy) is on record?
The value was 79 days and 85 days and 83 days and 86 days and 75 days and 84 days and 82 days.

What about the “Survival, Days Post Injection (death)” value ([1]; QST 10 mg/kg alone) of the same compound?
Its value is 65 days and 50 days and 49 days and 48 days and 46 days and 57 days and 54 days and 66 days.

What about the “increase of median survival versus vehicle” value ([1]; QST 10 mg/kg MWF + IR 6 Gy) of the same compound?
The value was 37 days.

What about the “increase of median survival versus vehicle” value ([1]; QST 10 mg/kg MWF monotherapy) of the same compound?
Its value is 4 days.

What about the “% CC-3 + / DAPI” value [2] of the same compound?
Its value is 18.5009% and 22.4947% and 8.724%.

And the “% Ki67+ / DAPI” value [2]?
The value was 8.013% and 11.9177% and 10.7184%.

And the “% CC-3 + / DAPI” value [3]?
The value was 11.8845% and 6.461% and 13.5339%.

And the “% Ki67+ / DAPI” value [3]?
The value was 26.1653% and 29.1973% and 26.725%.
